According to PMC12040169 (PLOS Biology, 2025):

Experiment: in vitro
Conditions: human, hela cells, % viability

Going from Cc1ccc2[nH]c3c(c2c1)CC(NS(=O)(=O)c1c(N)noc1C)CC3 (stereo not drawn) [CBK306270] to COc1cc(C2CC(=O)N(c3cc(C)on3)C(=O)C2)cc(OC)c1OC [CBK006810], the viability at 28.5 h, 10 µM rises from 86.6% to 109%.

Compared with COc1ccc(C2c3cc(OC)c(OC)cc3CC(=O)N2c2cccc(C(=O)O)c2)cc1OC (stereo not drawn) [CBK296118], C=CCOc1ccc(CNc2cccc(C(=O)O)c2)cc1OC [CBK074468] is higher in viability at 28.5 h, 10 µM: 94.1% for the first, 98.5% for the second.

First: O=C(Nc1cccnc1)c1ccnc(Cl)c1 [CBK089829]
Second: Cn1c(=O)oc2ccc(C(=O)Nc3cccc(-c4ccc(F)cc4)c3)cc21 [CBK286023]
The viability at 28.5 h, 10 µM of the first is higher: 100% for the first, 84.9% for the second.

Compared with Cc1ccc(-c2csc3ncnc(SCc4nc5ccccc5[nH]4)c23)cc1 [CBK267590], COc1ccc(Cn2c(C)nc3ccccc32)cc1 [CBK201156] is higher in viability at 28.5 h, 10 µM: 83.5% for the first, 116% for the second.

Compared with Cc1cc(/C=C2/NC(=O)NC2=O)c(C)n1-c1ccc(S(N)(=O)=O)cc1 [CBK264747], CCOC(=O)c1ccc(-n2sc3ccccc3c2=O)cc1 [CBK115552] is lower in viability at 28.5 h, 10 µM: 106% for the first, 99.1% for the second.

First: CC(Cn1cccn1)NCC(=O)NC1(C#N)CCCCC1 (stereo not drawn) [CBK304845]
Second: CCn1c(=O)n(CC(=O)N(C)C2CCCCC2)c2cccnc21 [CBK283786]
The viability at 28.5 h, 10 µM of the first is higher: 102% for the first, 86.3% for the second.

First: O=C(NC1CCCCC1)c1cc(NC(=O)c2ccccc2C(=O)O)ccc1Cl [CBK287062]
Second: Cc1ccccc1C(=O)NCCCNC(=O)c1ccccn1 [CBK269172]
The viability at 28.5 h, 10 µM of the first is lower: 96.3% for the first, 96.7% for the second.

Compared with O=C1NC(=O)C2(CCN(Cc3ccccc3)CC2)N1 [CBK005078], Clc1ccc(CN2CCc3ccccc3C2)cc1Cl [CBK126395] is higher in viability at 28.5 h, 10 µM: 86.8% for the first, 103% for the second.

First: N#C/C(=C/c1cc(Cl)c(OCc2ccc([N+](=O)[O-])cc2)c(Cl)c1)c1ccc(C(=O)O)cc1 [CBK269098]
Second: COc1ccc(Br)cc1S(=O)(=O)Nc1ccc(C(=O)O)cc1 [CBK034047]
The viability at 28.5 h, 10 µM of the first is lower: 105% for the first, 106% for the second.

Going from COc1ccc(-c2nc(NC(=O)COc3ccc(C)c4c3CCC4)cnc2-c2ccc(F)cc2)cc1 [CBK036990] to Fc1ccc(-c2cn(-c3ccc(OCc4ccccc4)c(F)c3)nn2)cc1 [CBK113121], the viability at 28.5 h, 10 µM rises from 88.7% to 99%.

First: OCCSc1ccc(C(F)(F)F)cn1 [CBK028739]
Second: O=C(CCn1c(C(F)(F)F)cc2cccnc21)N1CCC(O)CC1 [CBK284887]
The viability at 28.5 h, 10 µM of the first is higher: 115% for the first, 89.7% for the second.

Going from CCCN(C)Cc1ccc(-c2nnn(CC(=O)NCc3ccc(CC)cc3)n2)cc1NC(C)=O [CBK164703] to Oc1cccc(-c2cc(CC3(NCc4ccc(F)cc4)COC3)no2)c1 [CBK289646], the viability at 28.5 h, 10 µM rises from 105% to 108%.

First: O=C(Nc1ccc2n(c1=O)C[C@H]1C[C@@H]2CN(c2ncccn2)C1)c1ccccc1 [CBK289077]
Second: Cn1cc(CNCC2CCN(c3ccccc3)C2)c(-c2cccnc2)n1 (stereo not drawn) [CBK304155]
The viability at 28.5 h, 10 µM of the first is lower: 86.4% for the first, 95.7% for the second.

Going from c1cn(CC2(Cn3ccnc3)COC2)cn1 [CBK021839] to Cc1nccn1CCC1CCN(C(=O)CCCn2ccnc2)CC1 [CBK281988], the viability at 28.5 h, 10 µM falls from 108% to 95.3%.

First: Oc1ccc(C2N(O)C3CCCCC3N2O)cc1 (stereo not drawn) [CBK261715]
Second: Cn1ccnc1C1(O)CC2CCC(C1)N2C(=O)c1c(F)cccc1F (stereo not drawn) [CBK284092]
The viability at 28.5 h, 10 µM of the first is higher: 92.8% for the first, 88.7% for the second.

Compared with COCCc1nc(Cc2ccc(OC)cc2)nn1CC1COCCO1 (stereo not drawn) [CBK307521], COc1ccc(Cc2n[nH]c(=S)n2-c2cccnc2)cc1 [CBK288373] is lower in viability at 28.5 h, 10 µM: 89.7% for the first, 85.5% for the second.

Compared with O=C(O)c1[nH]c2ccccc2c1C(c1c(F)cccc1Cl)c1c(C(=O)O)[nH]c2ccccc12 [CBK267797], Cc1ccccc1-c1ccccc1CC1(C(N)=O)CCN(C(=O)c2cccc(F)c2)CC1 [CBK285726] is higher in viability at 28.5 h, 10 µM: 87.4% for the first, 94.2% for the second.

First: Cc1ccc(NC(=O)Nc2ccc(F)cc2)cc1S(=O)(=O)N(C)C [CBK269482]
Second: Cc1ccc(NC(=O)COC(=O)CCc2c[nH]c(O)n2)cc1 [CBK265562]
The viability at 28.5 h, 10 µM of the first is higher: 92.8% for the first, 89.9% for the second.

Compared with CN1C(=O)COc2ccccc2C/C=C/C[C@H]2CNCC[C@H]21 [CBK292076], CSc1ncc(CNC(=O)CC2CCc3ccccc32)n1C (stereo not drawn) [CBK307450] is lower in viability at 28.5 h, 10 µM: 107% for the first, 85.9% for the second.

Compared with COc1cccc(CC(=O)N2CCC[C@@H](N)[C@@H]2c2ccccc2F)c1 [CBK283455], COc1ccc2sc(N(Cc3cccnc3)C(=O)C3COc4ccccc4O3)nc2c1 (stereo not drawn) [CBK294424] is higher in viability at 28.5 h, 10 µM: 84.5% for the first, 107% for the second.

Compared with O=C(c1ccc2c(c1)OCO2)N1CCN(C(=O)c2ccc(Cl)cc2F)CC1 [CBK296685], Cc1ccc(C)c(-n2nnnc2SCC(=O)c2ccc(Cl)cc2Cl)c1 [CBK141941] is lower in viability at 28.5 h, 10 µM: 99% for the first, 98.1% for the second.

Going from Cn1cc(-c2nccnc2OCCc2cccs2)cn1 [CBK107066] to CSc1ccc(-c2nccnc2OCCN(C(C)C)C(C)C)cc1 [CBK106805], the viability at 28.5 h, 10 µM rises from 95% to 107%.

First: Fc1ccc(CN2CCC(c3nnc4n3CCCCC4)CC2)cc1F [CBK283356]
Second: Cc1ccc2cc(CN3CCCC(N)CC3)c(N3CCOCC3)nc2c1 (stereo not drawn) [CBK307693]
The viability at 28.5 h, 10 µM of the first is higher: 86.3% for the first, 83.5% for the second.

COc1ccccc1-c1nccnc1NCC(C)O (stereo not drawn) [CBK037637] and COc1ccccc1Nc1nc(N)c2ccccc2n1 [CBK266665C] are the same in viability at 28.5 h, 10 µM: 90.4% for the first, 90.4% for the second.

Going from CCCCCOc1ccc(Nc2ccc(-c3cccc(Cl)c3Cl)cn2)cc1 [CBK036856] to Oc1ccc(Nc2ccnc3cc(Cl)ccc23)cc1 [CBK012365C], the viability at 28.5 h, 10 µM falls from 111% to 93.5%.

Compared with COc1ncc(-c2cnc3[nH]c(=O)n(C4CC4)c3n2)cn1 [CBK064908], CCc1ccc2[nH]c3nc(NN)nnc3c2c1 [CBK262734] is lower in viability at 28.5 h, 10 µM: 89.1% for the first, 65.1% for the second.

Going from CC1CCC(C(C)C)C(OC(=O)C(C)O)C1 (stereo not drawn) [CBK067073] to C[C@@H]1C[C@H](C(F)(F)F)n2nc(C3CCCN3C(=O)C3CC3)cc2N1 (stereo partly drawn) [CBK285432], the viability at 28.5 h, 10 µM rises from 81.6% to 90.6%.

Going from CN1CCN(c2nc(-c3cc4ccccc4s3)cn3ccnc23)CC1 [CBK066388] to Fc1ccccc1CN1CCN(c2nccnc2OCCN2CCOCC2)CC1 [CBK082886T], the viability at 28.5 h, 10 µM falls from 106% to 102%.

Going from Cc1nn(C)c(C)c1CCn1cncc1-c1ccc2c(c1)CC(C)N2C (stereo not drawn) [CBK281788] to CN(C)c1cccc(Oc2nc3c(c(=O)n(C)c(=O)n3C)n2C)c1 [CBK270109], the viability at 28.5 h, 10 µM rises from 76% to 97.8%.

Compared with O=C(COc1ccc2ccccc2c1)Nc1ccc(N2CCN(Cc3ccccc3)CC2)cc1 [CBK266104], COc1ccc(C2N(Cc3ccccc3)CCN2Cc2ccccc2)c(OC)c1OC [CBK265220] is higher in viability at 28.5 h, 10 µM: 98.3% for the first, 104% for the second.

Going from CCN(Cc1cnc(C)s1)[C@H]1CCO[C@@H](c2ccccc2-c2ccc(OC)cc2)C1 [CBK285853] to Clc1ccc(CN2CCC(Oc3cncc(OCC4COc5ccccc5O4)n3)C2)cc1 (stereo not drawn) [CBK084364], the viability at 28.5 h, 10 µM falls from 95.5% to 94.7%.

Going from CC1(C)Cc2c(cnn2-c2ccccc2)C(NS(=O)(=O)C2CC2)C1 (stereo not drawn) [CBK307351] to Cc1oc(NC(=O)CN2CCN(c3ccccn3)CC2)c(C#N)c1C [CBK236456], the viability at 28.5 h, 10 µM falls from 102% to 96.9%.

Going from Clc1ccc(-c2ccc(N3CCN(CCN4CCCC4)CC3)nc2)cc1 [CBK037623] to O=[N+]([O-])c1ccc(N2CCN(S(=O)(=O)c3ccc(Cl)cc3)CC2)cc1NCc1cccnc1 [CBK264749], the viability at 28.5 h, 10 µM rises from 97.8% to 123%.

First: O=C(CN1C(=O)c2ccc([N+](=O)[O-])cc2C1=O)Nc1cccc2c1C(=O)N(c1ccccc1)C2=O [CBK265576]
Second: O=C(CSc1nc2ccccc2s1)OCC(=O)c1cccc([N+](=O)[O-])c1 [CBK262361]
The viability at 28.5 h, 10 µM of the first is lower: 84.7% for the first, 111% for the second.

First: O=C1NC2(CCNCC2)Oc2ccc(-c3cccc4ncccc34)cc21 [CBK083775T]
Second: Clc1cccc(Nc2cncc(-c3cccc4ccccc34)n2)c1 [CBK065764]
The viability at 28.5 h, 10 µM of the first is higher: 95.3% for the first, 93.4% for the second.

Compared with CC(=O)N1CCC2(CCCC[C@H]3CNCC[C@@H]3NC(=O)CNC2=O)CC1 [CBK292167], O=C(c1cc(F)c(F)cc1F)N1CCC2(CCCN(CCN3CCOCC3)C2)C1 (stereo not drawn) [CBK132015] is lower in viability at 28.5 h, 10 µM: 91.7% for the first, 82.8% for the second.

First: C/C(Cl)=C\CN1C(=O)C(=O)c2cc(C)ccc21 [CBK087601]
Second: Cc1csc2ncc(C(=O)Nc3ccccc3C#N)c(=O)n12 [CBK287458]
The viability at 28.5 h, 10 µM of the first is lower: 92.3% for the first, 95.3% for the second.

Compared with O=C(O)/C=C/c1cccc(-c2cncc(NCCc3ccncc3)n2)c1 [CBK065358], COc1cc(C2C(C(=O)c3cccs3)=C(O)C(=O)N2Cc2cccnc2)ccc1O (stereo not drawn) [CBK264605] is higher in viability at 28.5 h, 10 µM: 99.5% for the first, 110% for the second.

First: COc1ccc2[nH]c3c(c2c1)CCN[C@]31CCN(CCOc2ccc(F)cc2)C1 [CBK089876T]
Second: COc1ccc2[nH]c3c(c2c1)CCOC31CCN(C(=O)N[C@@H](C)c2ccccc2)CC1 [CBK047114]
The viability at 28.5 h, 10 µM of the first is lower: 73.6% for the first, 98.5% for the second.

Compared with O=C(O)c1ccc(OCCN2CCOCC2)cc1 [CBK287038], CNC(=O)c1ccc(CN(Cc2noc(C(C)C)n2)C2CC2)cc1 [CBK304084] is lower in viability at 28.5 h, 10 µM: 94.5% for the first, 83% for the second.

Compared with CCc1noc(C)c1C(=O)NCCN(C)C [CBK268118], Cc1cc(CNC(=O)/C=C/c2ccc(C(C)C)cc2)no1 [CBK149614] is higher in viability at 28.5 h, 10 µM: 97.5% for the first, 103% for the second.

Going from COc1cc2c(cc1OC)C(CCCC#N)=[N+](C)C(C)(C)C2 [CBK008807I] to CC(C)C(=O)Nc1sc2c(c1C(=O)NCc1cccnc1)CCC2 [CBK306144], the viability at 28.5 h, 10 µM falls from 97.9% to 80.3%.

Going from CC(C)NC(=O)c1ccccc1Br [CBK026505] to C[C@@H]1CN(C(=O)c2cc3ccccc3n2C)C[C@H](C)O1 [CBK200234], the viability at 28.5 h, 10 µM rises from 86.2% to 91.4%.

Going from NC1CC(c2cc(NCCOc3ccccc3Cl)ncn2)C1 (stereo not drawn) [CBK307167] to C(=N\N=C\c1ccccn1)/c1ccccn1 [CBK015627], the viability at 28.5 h, 10 µM rises from 73.7% to 89%.

COC(=O)c1cccc(Cn2cc(/C=C\[N+](=O)[O-])c3ccccc32)c1 [CBK269020] gave a viability at 28.5 h, 10 µM of 93.4%.

Same assay, conditions: human, hela cells, % viability, bulk resorufin, single well

Work on CCOC(=O)N1CCC2(CC1)OCc1cc(C#N)ccc1O2 [CBK131678] yielded a viability at 28.5 h, 10 µM of 87%.
